Details: Liquid, Ebulliometric method (Recirculating still)

C1CCCCC1 [cyclohexane]
Details	vapor or sublimation pressure [kPa]
313.4 K	24.95
315.76 K	27.43
318.05 K	29.95
320.11 K	32.46
322.06 K	34.9
323.92 K	37.43
325.66 K	39.94
327.32 K	42.42
328.9 K	44.91
330.44 K	47.45
331.94 K	49.92
333.33 K	52.43
334.6 K	54.76
335.99 K	57.44
337.31 K	59.98
338.5 K	62.44
339.65 K	64.86
340.81 K	67.47
341.92 K	69.94
342.99 K	72.45
344.05 K	74.96
344.09 K	75.07
345.11 K	77.54
346.07 K	79.92
347.06 K	82.52
348.01 K	85.03
348.86 K	87.27
349.84 K	89.99
350.73 K	92.48
351.55 K	94.84
353.73 K	101.33

C1=CCCCC1 [cyclohexene]
Details	vapor or sublimation pressure [kPa]
315.56 K	24.94
318.01 K	27.43
320.26 K	29.98
322.34 K	32.47
324.31 K	34.95
326.23 K	37.52
327.96 K	39.98
329.61 K	42.45
331.23 K	45.01
332.73 K	47.48
334.22 K	50.02
335.62 K	52.51
336.98 K	55.02
338.27 K	57.52
339.52 K	59.98
340.73 K	62.46
341.94 K	65.02
343.07 K	67.51
344.16 K	69.97
345.27 K	72.51
346.3 K	74.96
347.33 K	77.48
348.35 K	80.02
349.31 K	82.52
350.26 K	84.99
351.18 K	87.45
352.09 K	89.96
352.97 K	92.46
353.85 K	95.01
354.71 K	97.52
355.97 K	101.33

C=CCCCC [hex-1-ene]
Details	vapor or sublimation pressure [kPa]
298.07 K	24.93
300.32 K	27.41
302.55 K	30.08
304.54 K	32.46
306.31 K	34.84
308.2 K	37.48
309.84 K	39.96
311.51 K	42.53
312.98 K	44.96
314.38 K	47.42
315.79 K	49.92
317.17 K	52.53
318.43 K	54.98
319.62 K	57.39
320.84 K	59.94
322.02 K	62.51
323.16 K	64.97
324.21 K	67.45
325.25 K	69.88
326.29 K	72.44
327.32 K	75.04
328.25 K	77.45
329.21 K	79.98
330.11 K	82.42
331.01 K	84.93
331.86 K	87.33
332.74 K	89.92
333.62 K	92.54
334.38 K	94.82
335.24 K	97.45
336.48 K	101.3

CCCCCC [hexane]
Details	vapor or sublimation pressure [kPa]
303.16 K	25.04
305.43 K	27.5
307.43 K	29.95
309.54 K	32.44
311.47 K	35.07
313.25 K	37.51
314.84 K	39.98
316.52 K	42.44
317.92 K	45.02
319.49 K	47.45
320.76 K	50.01
322.26 K	52.52
323.37 K	55.03
324.59 K	57.32
325.89 K	60.07
326.95 K	62.46
328.09 K	64.77
329.19 K	67.22
330.16 K	69.64
331.45 K	72.45
332.28 K	74.82
333.48 K	77.48
334.39 K	79.84
335.33 K	82.31
336.26 K	84.88
337.14 K	87.26
338.02 K	89.85
338.91 K	92.35
339.73 K	94.85
340.44 K	97.02
341.79 K	101.32

Source: the NIST ThermoML archive (doi:10.1016/j.fluid.2008.12.007)
